{"source": "patent US20250268860A1", "about": "“COMPOSITION FOR USE IN THE CUTANEOUS SYNTHESIS OF HYALURONIC ACID, IN AN IMMUNO-CUTANEOUS RESPONSE AND TO IMPROVE SKIN” (JR, priority 2021, published 2025)", "key": {"[1]": {"tested_on": "Fibroblasts from healthy skin (FS)", "protocol": "Fibroblasts from healthy skin (FS) are cultured from biopsies performed on a patient, on a skin explant derived from surgery and considered as surgical waste. The conventional explantation technique is used for fibroblast extraction. The explants are cultured in Dulbecco's modified Eagle's medium supplemented with 10% fetal calf serum (FCS), 40 mg/l gentamicin and 2 mg/l fungizone (DMEMc) at 37° C., in a humid atmosphere and in the presence of 5% CO2.\nThe study of cell viability in the presence of the active principles to be tested is performed by means of an MTT assay. MTT is a tetrazolium salt whose ring is transformed by mitochondrial dehydrogenases. The yellow substrate is transformed into a dark blue product by living cells, but not by dead cells or the culture medium. This colorimetric test allows the color intensity to be linked to the number of living cells. The absorbance at 550 nm is directly proportional to the number of living fibroblasts. Cytotoxicity occurs when the cell viability is less than 80% relative to the control.\nThe active agents in powder form were taken up in 100% DMSO so as to obtain the stock solutions. […] After 24 hours of culturing, the active principles to be tested were added. Twelve concentrations of each active principle were tested (n=10/concentration). The active agents were dissolved directly in the culture medium from the stock solutions. After 24 hours of culturing in the presence of the active agents, an MTT assay was performed.\nFollowing the cytotoxicity results of the two active agents alone, a second cytotoxicity test was performed with the mixture. For each mixture, three concentrations were tested (n=10/concentration): • C1: highest concentration • C2: ½ dilution • C3: […]\nThe values are expressed as a percentage relative to the control, plus or minus the standard error of the distribution of the means (SEM). A one-factor analysis of variance is performed, followed if necessary by a Fisher test. Significance is retained only when p<0.05."}, "[2]": {"tested_on": "hyaluronic acid synthesis", "test": "Hyaluronic acid assay (ELISA) in fibroblast culture supernatant", "format": "cell-based, human", "protocol": "At confluence, the fibroblasts were trypsinized and seeded in 6-well plates at 0.08×10^6 cells per well in DMEMc 10% FCS. After 24 hours of culturing, the medium was replaced with DMEMc 1% FCS.\nAfter 24 hours of culturing, 2 ml of medium with or without active agent were added. The active agents were diluted to the concentrations chosen following cytotoxicity tests in DMEMc 1% FCS culture medium.\nAliquots were stored at −80° C. until assayed. The cell monolayers were washed with PBS and 500 μl of 0.1N NaOH were added. The cell lyzate was stored at −20° C. until protein assay.\nThe amount of hyaluronic acid in the various samples was determined by ELISA (Enzyme-Linked Immunosorbent Assay) using a TECO@kit. This kit is a sensitive sandwich assay which uses microplates coated with hyaluronic acid binding protein (HABP) and HRP-conjugated HABP binding protein for detection. The HRP-conjugated HABP binding protein binds to the hyaluronic acid contained in the sample, and then reacts with the substrate. The color intensity is proportional to the HA content of the sample.\n100 μl of standard or 100 μl of sample diluted to 1:50 were added to each well. The plate was incubated for 2 hours at room temperature, with agitation. After washing the plate, 100 μl of HRBP-HRP conjugate were added to each well. The plate was incubated for 30 minutes at room temperature, with agitation. After washing the wells, 100 μl of TMB substrate were added. The plate was incubated for 30 minutes at room temperature, in the dark and with agitation. The reaction was stopped by adding 100 μl of stop solution per well. Optical density readings were immediately taken at 450 nm.\nThe calibration curve was plotted, representing OD as a function of hyaluronic acid concentration. A regression curve was then plotted and the amounts of hyaluronic acid contained in the samples were determined by means of the equation of this regression curve. The hyaluronic acid concentrations are expressed in ng/mg of protein.\nA calibration range (0-2 mg/ml) was established using a solution of bovine serum albumin. 20 μl of each point of the calibration or sample range were placed in duplicate in the wells of a 96-well plate. 200 μl of Pierce reagent were added and the plate was incubated for 30 minutes at 37° C. The absorbance was read immediately at 550 nm (MultiSkan FC spectrophotometer, Thermo).\nSignificance is retained only when p<0.05."}, "beta-defensin-2 (hBD-2)": {"tested_on": "beta-defensin-2 (hBD-2)", "test": "hBD-2 release from keratinocytes, ELISA", "format": "cell-based, human", "conditions": "for hBD-2 % control / hBD-2 Mean / hBD-2: 72 hours; for hBD-2: single values", "protocol": "More specifically, the effect of these compounds was evaluated on the release of beta-defensin-2 (hBD -2) by Enzyme-Linked Immunosorbent Assay (ELISA). Prior to this, a preliminary cytotoxicity test was performed using a standard WST-8 reduction assay to determine the concentrations to be tested.\n(§1) • Cell type: Normal human epidermal keratinocytes (NHEK), used at the third passage • Culture conditions: 37° C., 5% CO2 • Culture medium: Keratinocyte-SFM optimized for the test, supplemented with Epidermal Growth Factor and pituitary extract\nThe keratinocytes were seeded in 96-well plates and cultured in culture medium for 24 hours. The medium was then replaced with culture medium containing or not (control) the compounds to be tested or the reference cytokine mixture (IL-17+IL-22+TNF-α at 5 ng/ml each). The cells were then incubated for 72 hours. All the experimental conditions were performed in n=3.\nThe inter-group comparisons were made using the unpaired bilateral Student's t-test. The statistical analyses can be interpreted if n>5; however for n<5, the calculated data are provided purely as a guide."}, "[3]": {"tested_on": "Normal human epidermal keratinocytes (NHEK)", "test": "Preliminary test of cytotoxicity, WST-8 reduction and morphological observations", "format": "cell-based", "conditions": "72 h", "protocol": "as §1\n• Cell type: NHEK in culture medium • Incubation time: 72 hours • Evaluation parameters: WST-8 reduction and morphological microscopic observations.\nAt the end of the treatment, the cells were incubated in the presence of WST-8 (a highly water-soluble tetrazolium salt), reduced to a water-soluble, orange-colored product (formazan) by succinate dehydrogenase (a mitochondrial enzyme). This transformation is proportional to the number of living cells and their metabolic activity. The optical density (OD) was measured with a spectrophotometer at 450 nm (VERSAmax, Molecular Devices).\nPercentage viability: viability (%)=(OD compound/OD control)×100"}}, "note": "Where two headings read alike, the source gives them in different places.", "data": [{"smiles": "O=C(/C=C/c1ccc(O)c(O)c1)O[C@@H]1C[C@](O)(C(=O)O)C[C@@H](O)[C@H]1O", "note": "[GPCB07, chlorogenic acid]", "values": [{"measurement": "maximum non-cytotoxic concentration retained", "setting": "[1]; female, human, 24 h", "value": 100, "unit": "µM"}, {"measurement": "Viability (%/Ctrl)", "setting": "[1]; female, human, 24 h, 0.5 μM", "value": 95.14, "unit": "%/Ctrl"}, {"measurement": "Viability (%/Ctrl)", "setting": "[1]; female, human, 24 h, 1 μM", "value": 94.89, "unit": "%/Ctrl"}, {"measurement": "Viability (%/Ctrl)", "setting": "[1]; female, human, 24 h, 5 μM", "value": 101.75, "unit": "%/Ctrl"}, {"measurement": "Viability (%/Ctrl)", "setting": "[1]; female, human, 24 h, 10 μM", "value": 89.63, "unit": "%/Ctrl"}, {"measurement": "Viability (%/Ctrl)", "setting": "[1]; female, human, 24 h, 25 μM", "value": 100.28, "unit": "%/Ctrl"}, {"measurement": "Viability (%/Ctrl)", "setting": "[1]; female, human, 24 h, 50 μM", "value": 99.64, "unit": "%/Ctrl"}, {"measurement": "Viability (%/Ctrl)", "setting": "[1]; female, human, 24 h, 75 μM", "value": 103.28, "unit": "%/Ctrl"}, {"measurement": "Viability (%/Ctrl)", "setting": "[1]; female, human, 24 h, 100 μM", "value": 100.41, "unit": "%/Ctrl"}, {"measurement": "improvement of hyaluronic acid (HA) content of skin cells reported in Ref. 18", "setting": "[2]; 100 μM, FIG. 4", "value": "could not be reproduced"}, {"measurement": "decrease of hyaluronic acid synthesis", "setting": "[2]; tested alone, 100 μM, 48 hours, relative to control", "value": "about 20%"}, {"measurement": "effect on beta-defensin-2 release from human epidermal keratinocytes", "setting": "beta-defensin-2 (hBD-2)", "value": "no effect"}, {"measurement": "hBD-2 % control", "setting": "beta-defensin-2 (hBD-2); 0.0033%", "value": "<73", "unit": "% control"}, {"measurement": "hBD-2 Mean", "setting": "beta-defensin-2 (hBD-2); 0.0033%", "value": "<8", "unit": "pg/mL"}, {"measurement": "hBD-2", "setting": "beta-defensin-2 (hBD-2); 0.0033%", "value": "<8", "unit": "pg/mL"}, {"measurement": "hBD-2 % control", "setting": "beta-defensin-2 (hBD-2); 0.01%", "value": "<73", "unit": "% control"}, {"measurement": "hBD-2 Mean", "setting": "beta-defensin-2 (hBD-2); 0.01%", "value": "<8", "unit": "pg/mL"}, {"measurement": "hBD-2", "setting": "beta-defensin-2 (hBD-2); 0.01%", "value": "<8", "unit": "pg/mL"}, {"measurement": "hBD-2 % control", "setting": "beta-defensin-2 (hBD-2); 0.03%", "value": "<73", "unit": "% control"}, {"measurement": "hBD-2 Mean", "setting": "beta-defensin-2 (hBD-2); 0.03%", "value": "<8", "unit": "pg/mL"}, {"measurement": "hBD-2", "setting": "beta-defensin-2 (hBD-2); 0.03%", "value": "<8", "unit": "pg/mL"}]}, {"smiles": "O=C(O)[C@H]1O[C@@H](Oc2cc3oc(-c4ccccc4)cc(=O)c3c(O)c2O)[C@H](O)[C@@H](O)[C@@H]1O", "note": "[GPCB09, baicalin]", "values": [{"measurement": "Viability (%/Ctrl)", "setting": "[1]; 0.5 μM, 24 hours", "value": 99.82, "unit": "%/Ctrl"}, {"measurement": "Viability (%/Ctrl)", "setting": "[1]; 1.0 μM, 24 hours", "value": 98.27, "unit": "%/Ctrl"}, {"measurement": "Viability (%/Ctrl)", "setting": "[1]; 5.0 μM, 24 hours", "value": 101.92, "unit": "%/Ctrl"}, {"measurement": "Viability (%/Ctrl)", "setting": "[1]; 10.0 μM, 24 hours", "value": 100.76, "unit": "%/Ctrl"}, {"measurement": "Viability (%/Ctrl)", "setting": "[1]; 50.0 μM, 24 hours", "value": 86.65, "unit": "%/Ctrl"}, {"measurement": "Viability (%/Ctrl)", "setting": "[1]; 100.00 μM, 24 hours", "value": 21.80, "unit": "%/Ctrl"}, {"measurement": "decrease in cell viability relative to the control", "setting": "[1]; 75 and 100 μM", "value": "very significant"}, {"measurement": "concentration causing a significant reduction in cell viability relative to the control", "setting": "[1]; 24 hours, MTT", "value": "≥ 50", "unit": "µM"}, {"measurement": "maximum non-cytotoxic concentration retained", "setting": "[1]; active agent alone", "value": 25, "unit": "µM"}, {"measurement": "effect on HA content relative to a control test", "setting": "[2]; 25 μM, FIG. 4", "value": "improve HA content"}, {"measurement": "increase of hyaluronic acid synthesis", "setting": "[2]; tested alone, 25 μM, 48 hours, relative to control", "value": "about 30%"}, {"measurement": "Viability Mean (%)", "setting": "[3]; 0.0004 mg/mL", "value": 99, "unit": "%"}, {"measurement": "Viability Mean (%)", "setting": "[3]; 0.0012 mg/mL", "value": 96, "unit": "%"}, {"measurement": "Viability Mean (%)", "setting": "[3]; 0.0037 mg/mL", "value": 87, "unit": "%"}, {"measurement": "Viability Mean (%)", "setting": "[3]; 0.011 mg/mL", "value": 66, "unit": "%"}, {"measurement": "Viability Mean (%)", "setting": "[3]; 0.033 mg/mL", "value": 35, "unit": "%"}, {"measurement": "Viability Mean (%)", "setting": "[3]; 0.098 mg/mL", "value": 21, "unit": "%"}, {"measurement": "Viability Mean (%)", "setting": "[3]; 0.287 mg/mL", "value": 19, "unit": "%"}, {"measurement": "Viability Mean (%)", "setting": "[3]; 0.38 mg/mL", "value": 1, "unit": "%"}, {"measurement": "effect on beta-defensin-2 release from human epidermal keratinocytes", "setting": "beta-defensin-2 (hBD-2)", "value": "no effect"}, {"measurement": "hBD-2 % control", "setting": "beta-defensin-2 (hBD-2); 0.0001%", "value": "<73", "unit": "% control"}, {"measurement": "hBD-2 Mean", "setting": "beta-defensin-2 (hBD-2); 0.0001%", "value": "<8", "unit": "pg/mL"}, {"measurement": "hBD-2", "setting": "beta-defensin-2 (hBD-2); 0.0001%", "value": "<8", "unit": "pg/mL"}, {"measurement": "hBD-2 % control", "setting": "beta-defensin-2 (hBD-2); 0.0003%", "value": "<73", "unit": "% control"}, {"measurement": "hBD-2 Mean", "setting": "beta-defensin-2 (hBD-2); 0.0003%", "value": "<8", "unit": "pg/mL"}, {"measurement": "hBD-2", "setting": "beta-defensin-2 (hBD-2); 0.0003%", "value": "<8", "unit": "pg/mL"}, {"measurement": "hBD-2 % control", "setting": "beta-defensin-2 (hBD-2); 0.001%", "value": "<73", "unit": "% control"}, {"measurement": "hBD-2 Mean", "setting": "beta-defensin-2 (hBD-2); 0.001%", "value": "<8", "unit": "pg/mL"}, {"measurement": "hBD-2", "setting": "beta-defensin-2 (hBD-2); 0.001%", "value": "<8", "unit": "pg/mL"}]}]}
